Test results from patent US20080045592A1, “Method of inhibiting growth and proliferation of listeria monocytogenes using levulinate” (Utah State University, priority 2006, published 2008).
Read-outs that look alike come from different tables or passages of the source.

How the values were obtained:
[1] = tested on: 5 strain cocktail of L. monocytogenes; conditions: for inhibiting growth of L. monocytogenes, compared with sodium lactate alone or sodium lactate combined with sodium diacetate: 2° C., comparators at 2%; for growth of L. monocytogenes: entire 12 weeks of storage at 2° C.
[2] = tested on: pathogenic bacteria including, but not limited to, Listeria monocytogenes; conditions: 2% applied at 54° C. to carcass tissue, stored at 4° C. for 12 hours
Method: This experiment tests the extent of decontamination achieved by topical application of levulinic acid to carcass meats as compared to lactic and acetic acids. Briefly, carcass tissues samples from beef, pork, lamb, and poultry (or any other species) are inoculated with pathogenic bacteria including, but not limited to, Listeria monocytogenes. Levulinic acid (2%), lactic acid (2%), and acetic acid (2%) are independently applied at 54° C. to individual meat samples by washing, dipping, or spraying. Samples are vacuum packaged and stored at 4° C. for 12 hours, and pathogen counts are determined.

[3] = tested on: pathogenic bacteria (including, but not limited to, Listeria monocytogenes); conditions: 0.5, 1.0, 2.0% applied at temperatures greater than 54° C. (68, 77° C.); comparators 2% at 54° C.
Method: Samples are vacuum packaged and stored at 4° C. for 12 hours, and pathogen counts are determined.

[4] = tested on: pathogenic bacteria (including, but not limited to, Listeria monocytogene); conditions: addition or application to any food, stored at 4 to 8° C. for up to 16 weeks
Method: Pathogen counts are determined at 0, 2, 4, 8, 12, and 16 weeks.

[5] = tested on: pathogenic bacteria (including, but not limited to Listeria monocytogenes); conditions: 2% applied at 54° C. to carcass tissues, stored 4 to 8° C. for 16 weeks
Method: This experiment tests the extent of residual anti-pathogenic activity of levulinic acid (2%) topically applied to carcasses by dipping, spraying, or washing as compared to lactic acid (2%) or acetic acid (2%). Briefly, levulinic acid, lactic acid and acetic acid are independently applied at 54° C. to samples of carcass tissues from beef, pork, lamb, and poultry (or any other species) by topical application. Samples are inoculated with pathogenic bacteria (including, but not limited to Listeria monocytogenes), vacuum packaged, and stored (4 to 8° C.) for 16 weeks. Pathogen counts are determined at 0, 2, 4, 8, 12, and 16 weeks.

[6] = tested on: cocktail of 5 pathogenic strains of L. monocytogenes; conditions: bologna slices surface contacted with 1 to 3% solutions, stored at 4° C. for 16 weeks
Description: This experiment tests the residual anti-Listeria activity imparted by topical application of levulinate to ready-to-eat meat product. In this experiment, levulinic acid is topically applied to a ready-to-eat meat product, and residual anti-Listeria activity followed in a post-treatment challenge. Briefly, bologna slices are surface contacted (spray, wash, or dips) with solutions of 1 to 3% levulinic […] acid. The slices are inoculated with a cocktail of 5 pathogenic strains of L. monocytogenes. Samples are vacuum packaged and stored at 4° C. for 16 weeks. Pathogen counts are determined at 0, 2, 4, 8, 12 and 16 weeks.

[7] = tested on: 5 strain cocktail of L. monocytogenes; conditions: for inhibition of growth of L. monocytogenes, compared with sodium lactate alone or sodium lactate combined with sodium diacetate: 2° C., comparators at 2%; for growth of L. monocytogenes: entire 12 weeks of storage at 2° C.

## CC(=O)CCC(=O)O [levulinate]
[1]; 1% in turkey product, after 12 weeks of storage at 2° C.
  peak levels of growth of L. monocytogenes: greatly inhibited
[1]; 1% in turkey product, vacuum packaged, stored at 2° C., two trials averaged
  growth of L. monocytogenes compared to the control: delayed growth

## CC(=O)CCC(=O)O [levulinic acid, 4-oxopentanoic acid]
[2]
  decontamination of pathogens as compared to lactic acid and acetic acid: equal or greater decontamination
[3]
  initial surface decontamination activity against pathogenic bacteria as compared to fixed concentrations of lactic acid or acetic acid at a fixed temperature: significant initial surface decontamination activity
[4]
  initial decontamination and residual activity against pathogenic bacteria: significant initial decontamination and residual activity
[5]
  residual anti-pathogenic activity as compared to lactic acid and acetic acid: equal or greater residual anti-pathogenic activity
[6]
  proliferation of Listeria bacteria in treated meat samples: significant decrease

## CC(=O)CCC(=O)[O-].[Na+] [sodium levulinate]
[1]; 2% in turkey product
  inhibiting growth of L. monocytogenes, compared with sodium lactate alone or sodium lactate combined with sodium diacetate: more effective
  growth of L. monocytogenes: completely inhibited growth
[1]; 3% in turkey product
  inhibiting growth of L. monocytogenes, compared with sodium lactate alone or sodium lactate combined with sodium diacetate: more effective
  growth of L. monocytogenes: completely inhibited growth
[7]; 1% in bologna
  inhibition of growth of L. monocytogenes, compared with sodium lactate alone or sodium lactate combined with sodium diacetate: as inhibitory
  growth of L. monocytogenes: completely inhibited growth
[7]; 2% in bologna
  inhibition of growth of L. monocytogenes, compared with sodium lactate alone or sodium lactate combined with sodium diacetate: as inhibitory
  growth of L. monocytogenes: completely inhibited growth
[7]; 3% in bologna
  inhibition of growth of L. monocytogenes, compared with sodium lactate alone or sodium lactate combined with sodium diacetate: as inhibitory
  growth of L. monocytogenes: completely inhibited growth
